# In US8741955B2, “D-serine transporter inhibitors as pharmaceutical compositions for the treatment of central nervous system disorders” (Allergan, Inc., priority 2011, dated 2014):
# “Also recorded” adds a separate entry of the source.
# Key:
# [1] = test system: amphetamine-induced hyperlocomotion in mice; test: amphetamine induced hyperactivity; assay type: in vivo; conditions: for effect on amphetamine-induced hyperactivity/hyperlocomotion: systemic administration, amphetamine 2 mg/kg s.c.
# Procedure: C57B/6 male mice (n=5-10/group) were placed in an open field apparatus and their activity was measured for 30 minutes. At 30 minutes, they received a vehicle injection or injection of test compound followed by an injection of amphetamine (2 mg/kg, s.c.) at minute 45. Their activity levels were subsequently measured for another 1 hour post-injection. Total activity for each 5 minute bin (21 total bins) was added to establish the activity curve over the 105 minute testing.
# [2] = molecular target: T1, asc-1 (Rattus norvegicus, UniProt P63116); test: sodium-independent [3H]D-serine transport into rat forebrain synaptosomes; assay type: biochemical; conditions: inhibition of [3H]D-serine transport, rat brain synaptosomes; means of at least two determinations
# T1 construct: from tissue; host or cells: rat forebrain P2 (synaptosome) fraction
# T1 sequence (P63116 1-530): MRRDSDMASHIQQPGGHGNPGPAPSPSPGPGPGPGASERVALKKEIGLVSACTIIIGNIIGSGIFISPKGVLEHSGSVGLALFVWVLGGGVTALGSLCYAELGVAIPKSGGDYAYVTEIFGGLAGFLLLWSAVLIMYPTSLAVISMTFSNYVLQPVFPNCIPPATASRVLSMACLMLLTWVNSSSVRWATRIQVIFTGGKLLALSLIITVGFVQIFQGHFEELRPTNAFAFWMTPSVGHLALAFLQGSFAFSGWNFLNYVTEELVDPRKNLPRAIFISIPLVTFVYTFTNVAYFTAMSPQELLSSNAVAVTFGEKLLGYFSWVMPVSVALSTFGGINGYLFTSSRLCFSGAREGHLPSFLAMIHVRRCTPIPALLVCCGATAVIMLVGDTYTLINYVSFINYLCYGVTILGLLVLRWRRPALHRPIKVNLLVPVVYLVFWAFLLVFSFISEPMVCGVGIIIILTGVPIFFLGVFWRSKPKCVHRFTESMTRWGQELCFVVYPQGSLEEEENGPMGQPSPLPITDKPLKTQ
# T1 sequence (Q794F9 1-527 partner): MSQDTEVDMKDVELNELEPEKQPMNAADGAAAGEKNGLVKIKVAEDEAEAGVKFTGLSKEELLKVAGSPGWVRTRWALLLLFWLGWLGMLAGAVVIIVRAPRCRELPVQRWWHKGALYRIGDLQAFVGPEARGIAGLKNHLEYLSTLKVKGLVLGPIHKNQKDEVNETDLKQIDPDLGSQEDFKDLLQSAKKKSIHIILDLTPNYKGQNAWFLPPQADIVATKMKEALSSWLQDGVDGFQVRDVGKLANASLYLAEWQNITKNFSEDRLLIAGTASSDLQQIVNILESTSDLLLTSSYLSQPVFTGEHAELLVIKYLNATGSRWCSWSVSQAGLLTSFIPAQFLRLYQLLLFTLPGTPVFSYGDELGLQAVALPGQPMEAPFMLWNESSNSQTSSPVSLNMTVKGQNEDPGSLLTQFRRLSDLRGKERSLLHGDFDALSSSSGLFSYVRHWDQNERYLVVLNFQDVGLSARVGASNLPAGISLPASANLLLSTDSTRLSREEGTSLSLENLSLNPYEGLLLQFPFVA
# Procedure: Under the assay conditions used, the sodium-independent transport of D-serine by rodent forebrain synaptosomes is mediated by asc-1 (Rutter et al., 2007), and the sodium-dependent transport of D-serine into astrocytes in culture is mediated by an ASCT transporter, ASCT2 according to the literature (Ribeiro et al., 2002).
# Synaptosome assays: a P2 fraction of rat forebrain was prepared and assayed immediately. Aliquots of the P2 preparation (approx. 1 mg of original tissue weight) were incubated in sodium-free assay buffer (CholineCl: 128 mM, KCl: 3.5 mM; KH2PO4: 1.5 mM; MgCl2: 1 mM; CaCl2: 1 mM; glucose: 10 mM; Tris-acetate buffer: 10 mM, pH7.4) containing [^3H]D-serine (final concentration of 50 nM) and test compounds in duplicate for 4 mins at room temperature. The synaptosomes containing radiolabel were collected by filtration onto Whatman GF/C filters, and washed twice with ice cold assay buffer. Filters were solubilized in scintillation fluid and radioactivity determined in a beta counter. IC50 values were determined as described for the cell-based assays above.
# [3] = test system: rat hippocampal astrocytes; test: [3H]D-serine transport into primary cultures of rat hippocampal astrocytes; assay type: cell-based; conditions: for IC50: Astrocyte, inhibition of [3H]D-serine transport, rat hippocampal astrocytes, means of at least two determinations; for fraction of D-serine transport represented by the component for which the compound shows higher affinity: two-component inhibition curves in astrocytes
# [4] = molecular target: T2, human ASCT2 (Homo sapiens, UniProt Q15758); test: transport into HEK cells expressing ASCT2; assay type: cell-based; conditions: [3H]L-serine transport, HEK cells
# T2 construct: expressed in transfected cells; host or cells: HEK (human embryonic kidney) cells
# T2 sequence (Q15758 1-541): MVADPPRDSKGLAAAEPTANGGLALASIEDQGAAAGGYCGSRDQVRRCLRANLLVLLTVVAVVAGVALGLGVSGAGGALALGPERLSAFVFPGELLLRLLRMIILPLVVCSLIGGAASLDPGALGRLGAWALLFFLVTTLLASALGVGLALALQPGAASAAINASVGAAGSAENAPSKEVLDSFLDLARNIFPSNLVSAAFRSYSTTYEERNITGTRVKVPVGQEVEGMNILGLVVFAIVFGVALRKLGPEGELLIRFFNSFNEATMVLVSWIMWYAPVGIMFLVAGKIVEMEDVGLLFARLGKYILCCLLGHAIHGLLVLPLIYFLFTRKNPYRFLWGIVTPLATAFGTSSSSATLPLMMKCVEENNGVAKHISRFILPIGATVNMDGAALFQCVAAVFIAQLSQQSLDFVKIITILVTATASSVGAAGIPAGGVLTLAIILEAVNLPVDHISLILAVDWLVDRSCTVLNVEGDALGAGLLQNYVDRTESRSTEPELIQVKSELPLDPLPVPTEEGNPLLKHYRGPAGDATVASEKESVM
# Procedure: (§1) Cell-based assays: the transport of [^3H]L- or D-serine was measured in primary cultures of rat hippocampal astrocytes or in human embryonic kidney (HEK) cells expressing ASCT transporter sub-types. For the astrocyte assays, cells were plated on either 24- or 96-well plates at a density of 50,000 cells per well. For the HEK assays, cells were plated on coated 96-well plates at a density of 80,000 cells/well. Assays were conducted in duplicate at room temperature in assay buffer consisting of: NaCl: 150 mM, KCl: 2 mM; MgCl2: 1 mM; CaCl2: 1 mM; HEPES: Tris buffer: 10 mM, pH7.4. To assess the sodium-dependence of transport, NaCl was replaced in the assay buffer by equimolar choline chloride. Following aspiration of growth medium and 2 washes with assay buffer, cells were incubated with [^3H]L- or D-serine at a final concentration of 1 μM for 5 min (astrocytes) or 1 min (HEK cells), after which the incubation medium was aspirated and the cells washed twice with ice-cold assay buffer. Cells containing radiolabel were solubilized in 100 μl of 1% Triton-X100 and an aliquot counted in a beta counter. IC50 values were determined over a range of at least 6 concentrations and derived from curve-fitting algorithms available in GraphPad Prism 4.
# [5] = test system: ASCT2; conditions: Utsunomiya-Tate 1996; Broer 1999; Torres-Zamorano 1998; cited from earlier work
# [6] = molecular target: T3, human ASCT1 (Homo sapiens, UniProt P43007); test: transport into HEK cells expressing ASCT1; assay type: cell-based; conditions: [3H]L-serine transport, HEK cells
# T3 construct: expressed in transfected cells; host or cells: HEK (human embryonic kidney) cells
# T3 sequence (P43007 1-532): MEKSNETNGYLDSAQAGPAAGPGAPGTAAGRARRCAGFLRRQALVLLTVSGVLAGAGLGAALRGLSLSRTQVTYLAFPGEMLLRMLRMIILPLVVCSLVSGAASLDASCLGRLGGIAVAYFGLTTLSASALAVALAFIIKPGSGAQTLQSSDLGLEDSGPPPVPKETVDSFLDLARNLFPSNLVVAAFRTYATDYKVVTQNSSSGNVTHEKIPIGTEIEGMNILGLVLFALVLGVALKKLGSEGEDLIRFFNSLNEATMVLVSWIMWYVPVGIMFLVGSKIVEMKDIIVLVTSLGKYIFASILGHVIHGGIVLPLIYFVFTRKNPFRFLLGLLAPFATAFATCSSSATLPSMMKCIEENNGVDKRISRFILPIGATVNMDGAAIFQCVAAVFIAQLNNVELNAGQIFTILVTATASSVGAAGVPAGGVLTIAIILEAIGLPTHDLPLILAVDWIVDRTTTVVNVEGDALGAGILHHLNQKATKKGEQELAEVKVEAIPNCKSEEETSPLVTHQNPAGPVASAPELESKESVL
# Procedure: as §1
# [7] = test system: LTP in the rat hippocampal slice; test: LTP in the rat hippocampal slice preparation; conditions: 100 μM
Structure (SMILES),IC50 [2] [µM],IC50 [3] [µM],other results
"O=C(O)[C@@H]1C[C@@H](Cc2ccc(Cl)cc2Cl)CN1 [R-gamma-2,4-dichlorobenzyl-L-proline]",,,effect on amphetamine-induced hyperactivity/hyperlocomotion [1]: effective
NC(=O)C[C@H](N)C(=O)O [L-asparagine],668,,
N[C@H](C(=O)O)c1ccc(F)cc1 [L-4-fluorophenylglycine],258,27.9,effect on amphetamine-induced hyperlocomotion at 0.3 mg/kg ip ([1]; 0.3 mg/kg ip): significant effect; effect on amphetamine-induced hyperactivity/hyperlocomotion [1]: potent dose-dependent inhibitor
N[C@@H](CO)C(=O)O [L-serine],9.6,57.9,
N[C@@H](CSc1ccccc1)C(=O)O [S-phenyl-L-cysteine],29.3,597,
N[C@@H](CCC(=O)OCc1ccccc1)C(=O)O [L-glutamate-γ-benzyl ester],62,3000,
NC(=O)CC[C@H](N)C(=O)O [L-glutamine],943,1640,fraction of D-serine transport represented by the component for which the compound shows higher affinity [3]: approximately 40%; selectivity for ASCT2 over ASCT1 [4]: showed selectivity towards ASCT2; also recorded: selective for ASCT2; affinity for ASCT2 reported in the literature [5]: 23 to 70 µM
O=C(O)[C@@H]1C[C@@H](O)CN1 [L-trans-4-hydroxyproline],> 10000,38.9,fraction of D-serine transport represented by the component for which the compound shows higher affinity [3]: approximately 60%; selectivity for ASCT1 over ASCT2 ([6]; listed as L-t-4OHPro): showed selectivity towards ASCT1; selectivity for ASCT1 over ASCT2 ([6]; listed as L-trans-4OHPro): selective for ASCT1
"N[C@@H](CCC(=O)Nc1ccc([N+](=O)[O-])cc1)C(=O)O [L-GPNA, L-gamma-glutamyl-4-nitroanilide]",453,,effect on LTP in the rat hippocampal slice [7]: enhance LTP
NC(C(=O)O)c1ccccc1F (racemic) [DL-2-fluorophenylglycine],348,1570,
N[C@@H](CSCc1ccccc1)C(=O)O [S-benzyl-L-cysteine],86,,
